This is an account of results in publication doi:10.1101/2025.02.15.638425v1, “Synthesis and Biological Evaluation of Nipecotic Acid Derivatives with Terminally Double-Substituted Allenic Spacers as mGAT4 Inhibitors” (biorxiv, 2025).

The structures appear in SMILES notation.

In assay [1] the target is T1, mGAT2 (Mus musculus, UniProt P31651).
T1 construct: gene Slc6a12; full-length transporter stably expressed in HEK293 cells; mouse nomenclature, equivalent of hBGT-1
T1 sequence (P31651 1-614): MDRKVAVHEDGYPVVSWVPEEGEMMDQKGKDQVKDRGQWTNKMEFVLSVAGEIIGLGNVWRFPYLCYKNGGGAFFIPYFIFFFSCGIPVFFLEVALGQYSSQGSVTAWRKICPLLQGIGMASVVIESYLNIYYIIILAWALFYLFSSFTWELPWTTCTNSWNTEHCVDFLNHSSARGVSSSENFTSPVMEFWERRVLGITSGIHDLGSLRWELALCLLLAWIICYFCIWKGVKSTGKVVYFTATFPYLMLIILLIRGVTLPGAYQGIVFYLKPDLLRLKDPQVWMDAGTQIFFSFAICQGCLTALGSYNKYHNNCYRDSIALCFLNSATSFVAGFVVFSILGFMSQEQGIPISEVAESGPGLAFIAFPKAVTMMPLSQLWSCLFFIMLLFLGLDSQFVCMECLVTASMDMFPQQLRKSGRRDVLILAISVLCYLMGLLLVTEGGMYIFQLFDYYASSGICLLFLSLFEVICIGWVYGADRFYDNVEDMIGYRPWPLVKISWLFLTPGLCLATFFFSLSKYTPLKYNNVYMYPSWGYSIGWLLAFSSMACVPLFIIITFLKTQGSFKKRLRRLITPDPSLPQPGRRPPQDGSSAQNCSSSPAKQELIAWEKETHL
The assay is described as follows: [3H]GABA uptake, intact HEK293 cells. It is filed as cell-based. An excerpt:
[3H]GABA uptake, intact HEK293 cells on mGAT2

Assay [2] has as its target T2, mGAT1 (Mus musculus, UniProt P31648).
T2 construct: gene Slc6a1; full-length transporter stably expressed in HEK293 cells
The assay is described as follows: competitive MS Binding Assay, NO711 marker, HEK293 membranes. An excerpt: competitive MS Binding Assay, NO711 marker, HEK293 membranes on mGAT1

Assay [3] addresses T3, mGAT4 (Mus musculus, UniProt P31650).
T3 construct: gene Slc6a11; full-length transporter stably expressed in HEK293 cells
T3 sequence (P31650 1-627): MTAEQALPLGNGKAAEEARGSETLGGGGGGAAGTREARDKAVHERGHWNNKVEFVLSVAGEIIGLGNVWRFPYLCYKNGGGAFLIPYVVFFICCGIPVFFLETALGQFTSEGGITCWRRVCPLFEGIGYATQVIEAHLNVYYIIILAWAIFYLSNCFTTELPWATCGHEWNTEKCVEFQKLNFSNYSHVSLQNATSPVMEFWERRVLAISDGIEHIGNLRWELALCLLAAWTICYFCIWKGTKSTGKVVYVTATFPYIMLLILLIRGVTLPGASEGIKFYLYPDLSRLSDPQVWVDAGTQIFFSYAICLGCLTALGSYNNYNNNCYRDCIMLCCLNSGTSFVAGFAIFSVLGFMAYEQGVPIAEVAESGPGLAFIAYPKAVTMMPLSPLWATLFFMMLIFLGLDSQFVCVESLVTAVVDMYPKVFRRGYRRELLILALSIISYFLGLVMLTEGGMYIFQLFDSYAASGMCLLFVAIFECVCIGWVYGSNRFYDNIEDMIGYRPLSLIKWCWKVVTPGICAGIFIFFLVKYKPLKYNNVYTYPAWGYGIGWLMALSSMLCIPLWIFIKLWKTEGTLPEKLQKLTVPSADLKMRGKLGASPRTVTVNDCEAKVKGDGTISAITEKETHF
The assay can be described thus: [3H]GABA uptake, intact HEK293 cells. It is filed as cell-based.

The target of assay [4] is T2, mGAT1. The assay is described as follows: [3H]GABA uptake, intact HEK293 cells. In kind it is cell-based. An excerpt: [3H]GABA uptake, intact HEK293 cells on mGAT1
Assay [5] deals with T4, mGAT3 (Mus musculus, UniProt P31649).
T4 construct: gene Slc6a13; full-length transporter stably expressed in HEK293 cells; mouse nomenclature, equivalent of hGAT-2
T4 sequence (P31649 1-602): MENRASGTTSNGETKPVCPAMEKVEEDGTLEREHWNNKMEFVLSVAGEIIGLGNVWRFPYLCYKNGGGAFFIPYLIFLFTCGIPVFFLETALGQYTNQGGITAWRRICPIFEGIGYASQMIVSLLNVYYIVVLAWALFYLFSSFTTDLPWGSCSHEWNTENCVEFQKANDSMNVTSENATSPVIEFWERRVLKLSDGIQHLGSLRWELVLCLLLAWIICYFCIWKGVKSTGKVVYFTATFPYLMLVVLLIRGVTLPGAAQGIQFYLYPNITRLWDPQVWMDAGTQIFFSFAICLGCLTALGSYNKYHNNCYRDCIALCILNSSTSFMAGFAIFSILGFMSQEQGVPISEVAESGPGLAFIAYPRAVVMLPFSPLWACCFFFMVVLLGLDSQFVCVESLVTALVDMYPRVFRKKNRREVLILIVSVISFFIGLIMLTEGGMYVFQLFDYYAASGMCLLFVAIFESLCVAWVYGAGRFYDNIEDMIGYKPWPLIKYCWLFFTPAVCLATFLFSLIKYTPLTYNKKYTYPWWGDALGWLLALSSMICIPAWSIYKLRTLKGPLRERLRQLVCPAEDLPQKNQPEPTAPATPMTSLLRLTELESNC
The assay can be described thus: [3H]GABA uptake, intact HEK293 cells. It is filed as cell-based. An excerpt:
[3H]GABA uptake, intact HEK293 cells on mGAT3

The target in assay [6] is T5, hGAT-3 (Homo sapiens, UniProt P48066).
T5 construct: gene SLC6A11; full-length transporter stably expressed in COS-7 cells
T5 sequence (P48066 1-632): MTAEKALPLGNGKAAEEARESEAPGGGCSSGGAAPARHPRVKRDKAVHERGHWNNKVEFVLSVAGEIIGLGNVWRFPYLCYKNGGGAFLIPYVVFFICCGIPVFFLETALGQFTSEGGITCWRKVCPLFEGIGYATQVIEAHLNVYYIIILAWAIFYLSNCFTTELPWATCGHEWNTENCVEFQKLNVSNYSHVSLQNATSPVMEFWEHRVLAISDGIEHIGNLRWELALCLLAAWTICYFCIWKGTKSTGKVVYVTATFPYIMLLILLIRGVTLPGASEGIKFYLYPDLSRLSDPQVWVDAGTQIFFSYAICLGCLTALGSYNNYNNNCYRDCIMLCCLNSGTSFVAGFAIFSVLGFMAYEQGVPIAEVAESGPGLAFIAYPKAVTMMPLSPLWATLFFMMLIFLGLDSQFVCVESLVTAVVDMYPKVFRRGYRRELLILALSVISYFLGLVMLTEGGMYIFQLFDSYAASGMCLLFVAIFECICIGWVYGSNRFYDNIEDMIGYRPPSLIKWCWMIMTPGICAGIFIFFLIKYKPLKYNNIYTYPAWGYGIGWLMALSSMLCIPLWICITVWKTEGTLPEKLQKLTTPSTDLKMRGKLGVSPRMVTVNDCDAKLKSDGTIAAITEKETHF
The assay is described as follows: MS Transport Assay (GABA transport), COS-7 cells. It is filed as cell-based. An excerpt: MS Transport Assay (GABA transport), COS-7 cells on hGAT-3

Assay [7] addresses T3, mGAT4. The assay is described as follows: [3H]GABA uptake, intact HEK293 cells. In kind it is cell-based. An excerpt: [3H]GABA uptake, intact HEK293 cells on mGAT4
The source holds these as a separate data set.

A word on the IC50: it is the midpoint of a concentration-inhibition curve. The low end stands for higher potency, the high end for lower potency. The term Ki denotes a dissociation constant, usually derived from enzyme kinetics or from competition with a known ligand. High values mean weaker binding, low ones tighter binding. Take `Cc1ccc(C(=C=CCCN2CCCC(C(=O)O)C2)c2ccc(C)cc2)cc1` (racemic) [rac-11b, rac-[1-(5,5-Di-p-tolylpenta-3,4-dien-1-yl)piperidine-3-carboxylic acid]]: the concentration for half-maximal inhibition (IC50) is 81.3 µM in assay [1], 83.2 µM in assay [3], 14.1 µM in assay [4] and 58.9 µM in assay [5]. Moreover, the Ki in assay [2] was 1580 nM.

`O=C(O)[C@@H]1CCCN(CC=C=C(c2ccc(Cl)cc2)c2ccc(Cl)cc2)C1` [(R)-8d]: the IC50 in assay [6] was 2400 nM; in assay [1] it was 15.8 µM; in assay [3] it was 2 µM; in assay [4], 0.155 µM; in assay [5], 4.17 µM. The compound further showed a Ki in assay [2] of 102 nM.

Turning to `O=C(O)C1CCCN(CC=C=C(c2ccc(F)cc2)c2ccc(F)cc2)C1` (racemic) [rac-8c, rac-{1-[4,4-Bis(4-fluorophenyl)buta-2,3-dien-1-yl]piperidine-3-carboxylic acid}], the concentration for half-maximal inhibition (IC50) in assay [1] was 79.4 µM; in assay [3], 30.2 µM; in assay [4] it was 1.07 µM; in assay [5] it was 69.2 µM. The compound also gave a Ki in assay [2] of 562 nM.

The remaining activity is the share of the control activity or signal that is left under treatment. A lower remaining activity goes with a large loss of activity. In turn, `COc1ccc2c(c1)CCCC2=C=CCN1CCCC(C(=O)O)C1` (racemic) [8g, rac-[(Ra)-1-{3-[6-methoxy-3,4-dihydronaphthalen-1(2H)-ylidene]allyl}-(3R)-piperidine-3-carboxylic acid] [rac-(3R,Ra)-8g] and rac-[(Sa)-1-{3-[6-methoxy-3,4-dihydronaphthalen-1(2H)-ylidene]allyl}-(3R)-piperidine-3-carboxylic acid]] yielded a remaining activity at 100 µM in assay [7] of 70%. In assay [2], this compound gave a Ki of 58900 nM. Moreover, the IC50 in assay [4] was 13.5 µM.

For the compound `Cc1ccc(C(=C=CCN2CCCC(C(=O)O)C2)c2ccc(C)cc2)cc1` (racemic) [rac-8b, rac-[1-(4,4-Di-p-tolylbuta-2,3-dien-1-yl)piperidine-3-carboxylic acid]], the IC50 in assay [1] was 27.5 µM; in assay [3], 11.5 µM; in assay [4], 6.46 µM; in assay [5], 10.5 µM. Further, in assay [2], the Ki was 1380 nM.

Regarding `O=C(O)[C@H]1CCCN(CC=C=C(c2ccc(Cl)cc2)c2ccc(Cl)cc2)C1` [(S)-8d, (S)-1-[4,4-bis(4-chlorophenyl)buta-2,3-dien-1-yl]piperidine-3-carboxylic acid], the IC50 in assay [6] was 324 nM; in assay [1], 4.07 µM; in assay [3] it was 0.257 µM; in assay [4], 1.35 µM; in assay [5] it was 1.1 µM. The affinity in assay [2], expressed as Ki, was 2510 nM.

Regarding `O=C(O)C1CCCN(CC=C=C(c2ccccc2)c2ccc(-c3ccccc3)cc2)C1` (racemic) [8f, rac-{(Ra)-1-[4-(1,1’-biphenyl-4-yl)-4-phenylbuta-2,3-dien-1-yl]-(3R)-piperidine-3-carboxylic acid} [rac-(3R,Ra)-8f] and rac-{(Sa)-1-[4-(1,1’-biphenyl-4-yl)-4-phenylbuta-2,3-dien-1-yl]-(3R)-piperidine-3-carboxylic acid}], the IC50 was 1660 nM in assay [6]; 6.46 µM in assay [1]; 4.47 µM in assay [3]; 5.01 µM in assay [4]; 8.32 µM in assay [5]. This compound gave a Ki in assay [2] of 1230 nM.

As to `O=C(O)C1CCCN(CC=C=C(c2ccccc2)c2ccccc2)C1` (racemic) [rac-8a, rac-[1-(4,4-Diphenylbuta-2,3-dien-1-yl)piperidine-3-carboxylic acid]], the remaining activity at 100 µM in assay [7] was 82%. In addition, the inhibitory constant (Ki) in assay [2] was 1170 nM. In assay [4], 7.41 µM corresponded to half-maximal inhibition (IC50).

In the case of `O=C(O)C1CCCN(CC=C=C(c2ccc(Cl)cc2)c2ccc(Cl)cc2)C1` (racemic) [rac-8d], the IC50 in assay [6] is 447 nM; in assay [1], 7.59 µM; in assay [3], 0.832 µM; in assay [4], 0.372 µM; in assay [5], 2.95 µM. In assay [2], affinity was put at a Ki of 155 nM.

As to `O=C(O)C1CCCN(CCC=C=C(c2ccc(Cl)cc2)c2ccc(Cl)cc2)C1` (racemic) [rac-11d, rac-{1-[5,5-Bis(4-chlorophenyl)penta-3,4-dien-1-yl]piperidine-3-carboxylic acid}], the IC50 in assay [1] was 12 µM; in assay [3], 17 µM; in assay [4], 1.91 µM; in assay [5], 28.2 µM. Besides, in assay [2], the Ki was 631 nM.

As to `O=C(O)C1CCCN(CCC=C=C(c2ccccc2)c2ccc(-c3ccccc3)cc2)C1` (racemic) [11f, rac-{(Ra)-1-[5-(1,1’-biphenyl-4-yl)-5-phenylpenta-3,4-dien-1-yl]-(3R)-piperidine-3-carboxylic acid} [rac-(3R,Ra)-11f] and rac-{(Sa)-1-[5-(1,1’-biphenyl-4-yl)-5-phenylpenta-3,4-dien-1-yl]-(3R)-piperidine-3-carboxylic acid}], the IC50 in assay [6] is 6170 nM; in assay [1], 12.3 µM; in assay [3] it was 12.6 µM; in assay [4] it was 4.68 µM; in assay [5], 10.2 µM. In addition, the affinity in assay [2], expressed as Ki, was 891 nM.
